Experiments:
Assay type in all cases: cell-based, human
[1] = system: membrane-bound TfR1; assay: Imaging flow cytometry (Imagestream) of membrane-bound TfR1 in fibroblasts
Description: (§1) Skin fibroblasts were grown in Dulbecco's Modified Eagle Medium (DMEM, Life technologies) medium supplemented with 10% fetal bovine serum (FBS), 2 mM L-glutamine, 2.5 mM pyruvate, 100 μg/ml streptomycin, 100 U/ml penicillin at 37° C. For treatment with ferric ammonium citrate (FAC), 80% confluent cells were incubated for 72 h with or without 100 μM FAC in serum-free DMEM (i.e. Tf free). For drug treatment, 80% confluent cells were incubated in DMEM+10% FBS supplemented with 25 μM artesunate (Sigma) in DMSO for 48 h, 25 μM CoA (Sigma) for 72 h and 5 mM DCA (Sigma) for 72 h.
Fibroblasts were starved for one hour in FBS-free DMEM medium (i.e. Tf-free), treated with 5 mM EDTA for harvesting them without disrupting TfR1 located at cell surface, as trypsin does, and then labelled with anti-TfR1 antibody at 4° C. to avoid TfR1 internalization. In this condition only membrane-bound TfR1 is quantified. Cell sorting was based on Hoechst-positive signal, allowing to select living cells.
(§2) Total iron contents were measured using a ferrozine-based iron assay modified from (Barbeito et al., 2010). For imaging flow cytometry, fibroblasts were starved for one hour in FBS-free DMEM medium, treated with 5 mM EDTA for harvesting them without disrupting TfR1 located at cell surface, as trypsin does, washed 3 times with cold PBS and then labelled with anti-TfR1 antibodies (A24) (Moura et al., 2004) for 1 h on ice to avoid TfR1 internalization. In this condition, only membrane-bound TfR1 is quantified. Secondary staining was performed using Alexa fluor 488 goat anti-mouse antibody (Life technology) for 30 min on ice. Cells were washed and stained with Hoechst for 5 min in a total volume of 50 μl and acquisitions were directly performed. Cell analysis was based on Hoechst-positive signal, allowing to select living cells. […] Data were acquired using the INSPIRE software (Amnis Corp) and analyzed using the IDEAS™ software (version 6.2 Amnis Corp) on at least 20,000 events. […] Results were expressed as mean pixel intensity value which is the intensity normalized to surface area.

[2] = system: fibroblasts (cellular iron content); assay: Ferrozine-based iron quantification in fibroblasts; conditions: for iron content: control cells
Description: as §1
Total iron contents were measured using a ferrozine-based iron assay modified from (Barbeito et al., 2010). For imaging flow cytometry, fibroblasts were starved for one hour in FBS-free DMEM medium, treated with 5 mM EDTA for harvesting them without disrupting TfR1 located at cell surface, as trypsin does, washed 3 times with cold PBS and then labelled with anti-TfR1 antibodies (A24) (Moura et al., 2004) for 1 h on ice to avoid TfR1 internalization. In this condition, only membrane-bound TfR1 is quantified. Secondary staining was performed using Alexa fluor 488 goat anti-mouse antibody (Life technology) for 30 min on ice. Cells were washed and stained with Hoechst for 5 min in a total volume of 50 μl and acquisitions were directly performed. Cell analysis was based on Hoechst-positive signal, allowing to select living cells. Samples were run on an Imagestream ISX mkII (Amnis Corp, Millipore, Seattle, WA) that combines flow cytometry with detailed cell-imaging and functional studies and a 40× magnification was used for all acquisitions. Data were acquired using the INSPIRE software (Amnis Corp) and analyzed using the IDEAS™ software (version 6.2 Amnis Corp) on at least 20,000 events. Spectral compensation was performed using singly stained samples. A specific mask was designed for analysis of the membrane localization of TfR1. This mask was the result of a full bright field mask minus a 5 pixels erode and 1 pixel dilate bright mask resulting in doughnuts-like mask. Results were expressed as mean pixel intensity value which is the intensity normalized to surface area.

[3] = system: TfR1; assay: Western blot of TfR1 steady-state level in fibroblasts; conditions: for steady state level of TfR1: CoA 25 μM 72 h, DCA 5 mM 72 h, artesunate 25 μM 48 h
Description: as §1
(§3) Cultured skin fibroblasts were harvested on ice by scraping in reducing (2 μM dithiothreitol, DTT, denaturation at 95° C. for 5 min) or non-reducing cell lysis buffer (no DTT, no heat denaturation). Western bot analysis was performed on 20 μg of whole-cell protein extracts or mitochondrial-enriched fractions in 12% acrylamide gel or 4-15% gel gradient. Immunodetections were performed in PBS with 5% or 1% milk, 0.05% Tween20 (SIGMA) using the following antibodies: rabbit anti-SOD1 (Abcam, ab16831), rabbit anti-SOD2 (Abcam, ab13533), mouse anti-TfR1 (Invitrogen, 13-6800), rabbit anti-TfR1 (Abcam, 108985), rabbit anti-ferritin (Abcam, ab75973), rabbit anti-IRP1 (Abcam, ab126595), rabbit anti-IRP2 (Abcam, ab80339), rabbit anti-FBXL5 (Abcam, ab140175), rabbit anti-FDXR (Abcam, 204310), rabbit anti-FXN (Protein tech, 14147-1-AP), rabbit anti-PDH E2 subunit (Abcam, ab172617), rabbit anti-lipoic acid (Abcam, ab58724), goat anti-Biotin (Thermo, 31852), mouse anti-VDAC/Porine (Abcam, ab14734)
(§4) mouse anti-ATP5a (Abcam, ab14748), mouse anti-Vinculin (abeam, ab130007), rabbit anti-TFAM (Proteintech, 19998-1-AP), rabbit ATP8 (Proteintech, 26723-1-AP) and mouse anti-GAPDH antibodies (ab8245). Blots were incubated with fluorescent secondary antibodies (IRDye 800CW/680LT Goat anti-rabbit or anti-mouse IgG (LI-COR)) or HRP-conjugated secondary antibodies (goat anti-rabbit IgG HRP (Abcam), goat anti-mouse IgG HRP (Abcam) or donkey anti-goat IgG HRP (Santa Cruz)) before ECL-based detection (SuperSignal West Dura, Thermo Scientific). Signals captured either with the Odyssey Infrared Imaging System using Image Studio Lite v5.2 (LI-COR Biosciences) or with CDD camera using Image Lab v3.0 (BioRad).

[4] = system: TfR1; assay: TfR1 palmitoylation assay in cultured skin fibroblasts
Description: as §1
TfR1 palmitoylation in cultured skin fibroblasts was modified from (Ba et al., 2012). Briefly, cells were lysed on ice in a DTT-free cell lysis buffer and endogenous TfR1 was immunoprecipitated overnight with mouse anti-TfR1 antibody (Life Technologies, 136890) with protein G magnetic beads (BioRad). After washing with PBS, beads were successively incubated 2 h with 50 mM N-ethylmaleimide (NEM) at room temperature, 1 M hydroxylamine and 50 mM HPDP-Biotin (Thermo) in dark for 2 hours. Samples were run in 12% acrylamide gel and biotin-labeled TfR1 level was determined by immunoblotting in non-reducing conditions using Chemidoc technology thanks to a CCD camera (BioRad) and ImageLab software v3.0 (BioRad).

[5] = system: fibroblasts (Tf recycling); assay: Transferrin (Tf) recycling by spinning-disk confocal microscopy in fibroblasts
Description: as §1
For Tf recycling, fibroblasts were spread at 30% confluence onto micro-slides glass bottom (IBIDI) 24 h before experiment. Cells were then starved in FBS-free DMEM media for 1 h before add Tf-RED (12.5 μg/mL) for 30 min at 37° C. Cells were washed with PBS and then incubated for in regular media for live-imaging acquisition using spinning disk confocal microscopy (ZEISS Microscopy). Slides were placed un incubation chamber at 37° C. under 5% CO2. At least 20 cells were acquired by condition using 63× oil immersion objective lens with a picture of cell/min during 40 min using Zen software. The nuclear region (NR) was defined using Icy software v1.9. […] PNROI masks were then applied on RED channel by spot detector plugin to obtain quantitative mean fluorescence particle intensity. […]

[6] = system: ferritin, FBXL5, SOD2, IRP1-2; assay: Western blot of proteins involved in iron homeostasis and antioxidant defense in fibroblasts; conditions: artesunate 25 μM for 48 h
Description: as §1, §3, §4

[7] = system: PBMC (iron content); assay: Ferrozine-based iron quantification in PBMC grown in high iron medium; conditions: 40 h in high iron medium (100 μM FAC), artesunate 25 μM
Description: PBMC were isolated from 8 ml blood samples by density centrifugation using Ficoll (GE Healthcare) and grown 2 h in regular DMEM before treatment with 100 μM FAC for different time.
as §2

[8] = FRDA fibroblasts, artesunate 25 μM for 48 h
[9] = control cells, artesunate 25 μM for 48 h

In the case of `CC(C)(COP(=O)(O)OP(=O)(O)OC[C@H]1O[C@@H](n2cnc3c(N)ncnc32)[C@H](O)[C@@H]1OP(=O)(O)O)[C@@H](O)C(=O)NCCC(=O)NCCS` [CoA, [[(2R,3S,4R,5R)-5-(6-aminopurin-9-yl)-4-hydroxy-3-phosphonooxyoxolan-2-yl]methoxy-hydroxyphosphoryl][(3R)-3-hydroxy-2,2-dimethyl-4-oxo-4-[[3-oxo-3-(2-sulfanylethylamino)propyl]amino]butyl]hydrogen phosphate], the “membrane TfR1 accumulation” value ([1]; summary statement in discussion, conditions not given) is reported as “reduced”, the “decrease of cellular iron content” value ([2]; FRDA fibroblasts, high iron conditions (+FAC), CoA 25 μM for 72 h) is reported as 1.6-2.4 fold and the “steady state level of TfR1” value ([3]; FRDA fibroblasts) is reported as “decreased”. The “increase of TfR1 palmitoylation” value ([4]; FRDA fibroblasts, CoA 25 μM for 72 h) was 2.1 to 3.2 fold.
For `C[C@H]1[C@H](OC(=O)CCC(=O)O)O[C@@H]2O[C@@]3(C)CC[C@H]4[C@H](C)CC[C@@H]1[C@@]24OO3` [artesunate, (3R,5aS,6R,8aS,9R,10S,12R,12aR)-Decahydro-3,6,9-trimetyl-3,12-epoxy-12H-pyrano[4,3-j]-1,2-benzodioxepin-10-ol, hydrogen succinate], the “decrease of membrane TfR1” value [1, 8] was 15-30%, the “increase of membrane TfR1” value [1, 9] was 1.1 to 1.3 fold and the “Tf recycling (Tf-Alexa555 signal)” value [5, 8] was “complete rescue”. For the same compound, the Tf recycling ([5]; control cells treated with artesunate) was “slight delay”, the “cellular iron content relative to initial cellular iron content” value ([2]; FRDA fibroblasts, basal conditions, artesunate 25 μM for 48 h) was 62-79 % of initial cellular iron content and the “decrease of cellular iron content” value ([2]; FRDA fibroblasts, high iron condition (100 μM FAC), 25 μM artesunate for 48 h) was 71-79%. For the same compound, the iron content ([2]; basal conditions, artesunate 25 μM for 48 h) was “light but non-significant increase”, the iron content ([2]; high iron conditions (100 μM FAC), 25 μM artesunate) was “decreased” and the “TfR1 steady-state level relative to control values in artesunate-free medium” value ([3]; FRDA fibroblasts, regular DMEM, artesunate 25 μM for 48 h) was 136 % of control values. For the same compound, the “steady state level of TfR1” value ([3]; FRDA fibroblasts) was “significantly decreased”, the TfR1 steady-state level [3, 9] was “slight increase” and the “FBXL5 steady state level” value ([6]; FRDA fibroblasts) was “returned to control values”. The “IRP1-2 steady state levels” value ([6]; FRDA fibroblasts) was “not modified”, the “SOD2 steady state level” value ([6]; FRDA fibroblasts) was “decreased” and the “ferritin steady state level” value ([6]; FRDA fibroblasts) was “returned to control values”. For the same compound, the “FBXL5 steady state level” value ([6]; control cells) was “not modified”, the “ferritin steady state level” value ([6]; control cells) was “not modified” and the “TfR1 palmitoylation relative to controls” value [4, 8] was 80 % of controls. For the same compound, the TfR1 palmitoylation ([4]; control cells, artesunate treatment) was “slight but non-significant decrease”, the “iron content of PBMC” value ([7]; FRDA PBMCs) was “two-fold decrease” and the “iron content of PBMC” value ([7]; control PBMCs) was “two-fold decrease”.

Reference: US11857532B2, “Treatment and prediction of therapeutic responses in patients suffering from Friedreich ataxia” (INSERM (Institut National de la Santé et de la Recherche …, priority 2018, dated 2024)
